For orientation: IC95 means the concentration needed for an effect of 95%. One may read the IC50 as the concentration at which inhibition is half-maximal. A lower IC50 goes with greater potency.

The source of these data is patent publication US20090131494A1, “Non-Nucleoside Reverse Transcriptase Inhibitors” (priority 2005, published 2009).

For one assay, the system named is acute HIV infection of T-lymphoid cells. In words: Assay for inhibition of HIV replication (spread assay). Format: cell-based. Particulars: Human immunodeficiency virus 1, T-lymphoid, read-out: IC95, inhibition of HIV replication in spread assay. As for the experimental part:
An assay for the inhibition of acute HIV infection of T-lymphoid cells (alternatively referred to herein as the “spread assay”) was conducted in accordance with Vacca, J. P. et al., Proc. Natl. Acad. Sci. USA 1994, 91: 4096.
On to `CCOC(=O)c1[nH]c2ccc(Cl)cc2c1SCC1CCCCC1` [Example 11, ethyl 5-chloro-3-[(cyclohexylmethyl)thio]-1H-indole-2-carboxylate], for which the 95% effect concentration (IC95) is no more than 10 µM.
With `CCOC(=O)c1[nH]c2ccc(Cl)cc2c1S(=O)(=O)CC1CCCCC1` [Example 22, ethyl 5-chloro-3-[(cyclohexylmethyl)sulfonyl]-1H-indole-2-carboxylate], the 95% effect concentration (IC95) is no more than 10 µM.
Still for that read-out and setting: the result for `NC(=O)c1[nH]c2ccc(Cl)cc2c1S(=O)(=O)CC1CCCCC1` [Example 33, 5-chloro-3-[(cyclohexylmethyl)sulfonyl]-1H-indole-2-carboxamide] reads no more than 10 µM.

Still in this assay, the particulars now being: Human immunodeficiency virus 1; T-lymphoid cells; tested up to 10 micromolar; read-out: IC95, inhibition of HIV replication in spread assay.
`CCOC(=O)c1[nH]c2ccc(Cl)cc2c1SCC1CCC1` [Example 1, Ethyl 5-chloro-3-(cyclobutylmethylthio)-1H-indole-2-carboxylate]: the IC95 is no more than 10 µM.
In the case of `CCOC(=O)c1[nH]c2ccc(Cl)cc2c1SCC(F)(F)F` [Example 2, ethyl 5-chloro-3-[(2,2,2-trifluoroethyl)thio]-1H-indole-2-carboxylate], the IC95 was greater than 10 µM.
As to `CCOC(=O)c1[nH]c2ccc(Cl)cc2c1SCCC(F)(F)F` [Example 3, ethyl 5-chloro-3-[(3,3,3-trifluoropropyl)thio]-1H-indole-2-carboxylate], the IC95 is no more than 10 µM.
Take `CCOC(=O)c1[nH]c2ccc(Cl)cc2c1SCCCC(F)(F)F` [Example 4, ethyl 5-chloro-3-[(4,4,4-trifluorobutyl)thio]-1H-indole-2-carboxylate]: the IC95 is greater than 10 µM.
Same read-out and setting: the result for `CCOC(=O)c1[nH]c2ccc(Cl)cc2c1SCC(F)(F)C(F)(F)F` [Example 5, ethyl 5-chloro-3-[(2,2,3,3,3-pentafluoropropyl)thio]-1H-indole-2-carboxylate] reads no more than 10 µM.
Regarding `CCOC(=O)c1[nH]c2ccc(Cl)cc2c1SC1CC1` [Example 6, ethyl 5-chloro-3-(cyclopropylthio)-1H-indole-2-carboxylate], the concentration for an effect of 95% (IC95) is greater than 10 µM.
The same measure, in the same setting: the figure for `CCOC(=O)c1[nH]c2ccc(Cl)cc2c1SCCC1CC1` [Example 8, ethyl 5-chloro-3-[(2-cyclopropylethyl)thio]-1H-indole-2-carboxylate] is no more than 10 µM; for `CCOC(=O)c1[nH]c2ccc(Cl)cc2c1SC1CCC1` [Example 9, ethyl 5-chloro-3-(cyclobutylthio)-1H-indole-2-carboxylate] it is no more than 10 µM; for `CCOC(=O)c1[nH]c2ccc(Cl)cc2c1SC1CCCC1` [Example 10, ethyl 5-chloro-3-(cyclopentylthio)-1H-indole-2-carboxylate] it is no more than 10 µM.
On to `CCOC(=O)c1[nH]c2ccc(Cl)cc2c1SC1CCCCC1` [Example 12, Ethyl 5-chloro-3-(cyclohexylthio)-1H-indole-2-carboxylate], for which the IC95 is no more than 10 µM.
On the same count and under the same terms, the figure for `CCOC(=O)c1[nH]c2ccc(Cl)cc2c1S(=O)(=O)CC1CCC1` [Example 13, Ethyl 5-chloro-3-(cyclobutylmethylsulfonyl)-1H-indole-2-carboxylate] is no more than 10 µM; for `CCOC(=O)c1[nH]c2ccc(Cl)cc2c1S(=O)(=O)CCC(F)(F)F` [Example 14, ethyl 5-chloro-3-[(3,3,3-trifluoropropyl)sulfonyl]-1H-indole-2-carboxylate] it is greater than 10 µM.
In the case of `CCOC(=O)c1[nH]c2ccc(Cl)cc2c1S(=O)(=O)CCCC(F)(F)F` [Example 15, ethyl 5-chloro-3-[(4,4,4,-trifluorobutyl)sulfonyl]-1H-indole-2-carboxylate], the IC95 is greater than 10 µM.
On to `CCOC(=O)c1[nH]c2ccc(Cl)cc2c1S(=O)(=O)C1CC1` [Example 16, ethyl 5-chloro-3-(cyclopropylsulfonyl)-1H-indole-2-carboxylate], for which the concentration for an effect of 95% (IC95) is greater than 10 µM.
Consider `CCOC(=O)c1[nH]c2ccc(Cl)cc2c1S(=O)(=O)CC1CC1` [Example 17, ethyl 5-chloro-3-[(cyclopropylmethyl)sulfonyl]-1H-indole-2-carboxylate], for which the 95% effect concentration (IC95) is no more than 10 µM.
As for `CCOC(=O)c1[nH]c2ccc(Cl)cc2c1S(=O)(=O)CCC1CC1` [Example 18, ethyl 5-chloro-3-[(2-cyclopropylethyl)sulfonyl]-1H-indole-2-carboxylate], the IC95 was no more than 10 µM.
The same measure, in the same setting: the result for `CCOC(=O)c1[nH]c2ccc(Cl)cc2c1S(=O)(=O)C1CCC1` [Example 19, ethyl 5-chloro-3-(cyclobutylsulfonyl)-1H-indole-2-carboxylate] reads greater than 10 µM; that for `CCOC(=O)c1[nH]c2ccc(Cl)cc2c1S(=O)(=O)C1CCCC1` [Example 20, ethyl 5-chloro-3-(cyclopentylsulfonyl)-1H-indole-2-carboxylate], greater than 10 µM; that for `CCOC(=O)c1[nH]c2ccc(Cl)cc2c1S(=O)(=O)C1CCCCC1` [Example 21, ethyl 5-chloro-3-(cyclohexylsulfonyl)-1H-indole-2-carboxylate], greater than 10 µM.
Still for that read-out and setting: the figure for `NC(=O)c1[nH]c2ccc(Cl)cc2c1S(=O)(=O)CC1CCC1` [Example 23, 5-Chloro-3-(cyclobutylmethylsulfonyl)-1H-indole-2-carboxamide] is no more than 10 µM.
Still for that read-out and setting: the result for `NC(=O)c1[nH]c2ccc(Cl)cc2c1S(=O)(=O)CCC(F)(F)F` [Example 24, 5-chloro-3-[(3,3,3-trifluoropropyl)sulfonyl]-1H-indole-2-carboxamide] reads no more than 10 µM; that for `NC(=O)c1[nH]c2ccc(Cl)cc2c1S(=O)(=O)CCCC(F)(F)F` [Example 25, 5-chloro-3-[(4,4,4-trifluorobutyl)sulfonyl]-1H-indole-2-carboxamide], no more than 10 µM; that for `NC(=O)c1[nH]c2ccc(Cl)cc2c1S(=O)(=O)C1CC1` [Example 26, 5-chloro-3-(cyclopropylsulfonyl)-1H-indole-2-carboxamide], no more than 10 µM.
In the case of `NC(=O)c1[nH]c2ccc(Cl)cc2c1S(=O)(=O)CC1CC1` [Example 27, 5-chloro-3-[(cyclopropylmethyl)sulfonyl]-1H-indole-2-carboxamide], the IC95 was no more than 10 µM.
Regarding `NC(=O)c1[nH]c2ccc(Cl)cc2c1S(=O)(=O)CCC1CC1` [Example 28, 5-chloro-3-[(2-cyclopropylethyl)sulfonyl]-1H-indole-2-carboxamide], the IC95 is no more than 10 µM.
On the same count and under the same terms, the result for `NC(=O)c1[nH]c2ccc(Cl)cc2c1S(=O)(=O)C1CCC1` [Example 29, 5-chloro-3-(cyclobutylsulfonyl)-1H-indole-2-carboxamide] reads no more than 10 µM; that for `NC(=O)c1[nH]c2ccc(Cl)cc2c1S(=O)(=O)C1CCCC1` [Example 30, 5-chloro-3-(cyclopentylsulfonyl)-1H-indole-2-carboxamide], no more than 10 µM; that for `NC(=O)c1[nH]c2ccc(Cl)cc2c1S(=O)(=O)C1CCCCC1` [Example 31, 5-chloro-3-(cyclohexylsulfonyl)-1H-indole-2-carboxamide], no more than 10 µM.
On to `NC(=O)c1[nH]c2ccc(Cl)cc2c1S(=O)(=O)C1C=CCCC1` (stereo not drawn) [Example 32, 5-chloro-3-(cyclohex-2-en-1-ylsulfonyl)-1H-indole-2-carboxamide], for which the IC95 is no more than 10 µM.
Still for that read-out and setting: the result for `CC(CC(F)(F)F)S(=O)(=O)c1c(C(N)=O)[nH]c2ccc(Cl)cc12` (stereo not drawn) [Example 34, 5-chloro-3-[(3,3,3-trifluoro-1-methylpropyl)sulfonyl]-1H-indole-2-carboxamide] reads no more than 10 µM; that for `NC(=O)c1[nH]c2ccc(Cl)cc2c1S(=O)(=O)CC1CC(F)(F)C1(F)F` (stereo not drawn) [Example 37], no more than 10 µM; that for `NC(=O)c1[nH]c2ccc(Cl)cc2c1S(=O)(=O)CC(F)(F)C(F)F` [Example 38, 5-chloro-3-[(2,2,3,3-tetrafluoropropyl)sulfonyl]-1H-indole-2-carboxamide], greater than 10 µM.
As for `CC(C)CCS(=O)(=O)c1c(C(=O)NCc2nccn2C)[nH]c2ccc(Cl)cc12` [Example 39, 5-Chloro-3-[(3-methylbutyl)sulfonyl]-N-[(1-methyl-1H-imidazol-2-yl)methyl]-1-indole-2-carboxamid-indole-2-carboxamide], the IC95 was no more than 10 µM.
In the case of `CC(C)CCS(=O)(=O)c1c(C(=O)NCc2n[nH]c3ccccc23)[nH]c2ccc(Cl)cc12` [Example 40, 5-Chloro-N-(1H-indazol-3-ylmethyl)-3-[(3-methylbutyl)sulfonyl]-1H-indole-2-carboxamide], the IC95 is no more than 10 µM.

The target in another assay is T1, mutant HIV reverse transcriptase, K103N mutation (Human immunodeficiency virus type 1 group M subtype B, UniProt P04585, K690N).
T1 construct: made in house
The assay is described as follows: Analogous RT inhibition assay, K103N mutant. Format: biochemical. Particulars: RT with K103N mutation. The method, then:
Analogous assays were conducted substituting mutant HIV strains to determine the […] inhibition of compounds of the present invention against mutant HIV reverse transcriptase. In one strain the reverse transcriptase has the Y181C mutation and in the other strain the reverse transcriptase has the K103N mutation. The mutations were generated with the […] site-directed mutagenesis kit (Stratagene).
Turning to `CC(C)CCS(=O)(=O)c1c(C(=O)NCc2nccn2C)[nH]c2ccc(Cl)cc12` [Example 39, 5-Chloro-3-[(3-methylbutyl)sulfonyl]-N-[(1-methyl-1H-imidazol-2-yl)methyl]-1-indole-2-carboxamid-indole-2-carboxamide], the IC50 is less than 2 µM.
Still for that read-out and setting: the result for `CC(C)CCS(=O)(=O)c1c(C(=O)NCc2n[nH]c3ccccc23)[nH]c2ccc(Cl)cc12` [Example 40, 5-Chloro-N-(1H-indazol-3-ylmethyl)-3-[(3-methylbutyl)sulfonyl]-1H-indole-2-carboxamide] reads less than 2 µM.
